This is an account of results in publication PMC10116527 (ACS Omega, 2023).

In experiment [1] the target is T1, PI3Kα (Homo sapiens, UniProt P42336). The experiment in a line: Adapta universal kinase assay. To be noted: read-out: % inhibition against PI3Kα enzyme ± SD ^b. It is filed as biochemical.
Experiment [2] addresses T1, PI3Kα. The experiment in a line: Adapta universal kinase assay. As to conditions: read-out: % inhibition against PI3Kα enzyme ± SD ^b. Type of experiment: biochemical. This is another data set of the same source.

Like-named read-outs stand apart in the source and are kept apart here.

T1 sequence (P42336 whole entry): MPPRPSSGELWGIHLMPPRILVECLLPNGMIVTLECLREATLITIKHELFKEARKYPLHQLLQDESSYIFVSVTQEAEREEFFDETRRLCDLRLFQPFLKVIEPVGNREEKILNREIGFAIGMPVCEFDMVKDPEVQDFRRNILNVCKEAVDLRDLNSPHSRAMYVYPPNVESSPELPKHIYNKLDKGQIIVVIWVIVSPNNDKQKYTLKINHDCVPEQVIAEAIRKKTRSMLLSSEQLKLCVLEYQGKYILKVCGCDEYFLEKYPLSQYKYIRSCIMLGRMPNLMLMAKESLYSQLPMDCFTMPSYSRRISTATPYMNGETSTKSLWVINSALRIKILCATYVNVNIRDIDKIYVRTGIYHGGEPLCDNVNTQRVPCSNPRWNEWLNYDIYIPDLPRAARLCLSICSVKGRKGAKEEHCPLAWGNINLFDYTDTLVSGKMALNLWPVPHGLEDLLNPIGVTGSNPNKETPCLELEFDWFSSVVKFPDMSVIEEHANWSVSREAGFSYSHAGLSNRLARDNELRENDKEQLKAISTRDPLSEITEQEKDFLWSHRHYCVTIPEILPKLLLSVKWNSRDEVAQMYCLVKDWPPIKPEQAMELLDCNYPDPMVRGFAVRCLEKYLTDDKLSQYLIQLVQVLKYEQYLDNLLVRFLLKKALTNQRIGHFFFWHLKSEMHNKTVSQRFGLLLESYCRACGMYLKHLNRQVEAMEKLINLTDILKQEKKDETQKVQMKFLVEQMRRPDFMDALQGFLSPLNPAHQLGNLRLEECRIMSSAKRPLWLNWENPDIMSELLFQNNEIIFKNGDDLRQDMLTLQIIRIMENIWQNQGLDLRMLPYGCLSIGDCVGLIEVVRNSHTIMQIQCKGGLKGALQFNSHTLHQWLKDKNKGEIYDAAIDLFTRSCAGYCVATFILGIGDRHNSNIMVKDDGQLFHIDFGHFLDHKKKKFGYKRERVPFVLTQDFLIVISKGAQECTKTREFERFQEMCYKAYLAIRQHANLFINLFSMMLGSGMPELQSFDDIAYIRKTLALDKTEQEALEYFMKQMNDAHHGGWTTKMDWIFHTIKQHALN
T1 sequence (P27986 2-724, further chain): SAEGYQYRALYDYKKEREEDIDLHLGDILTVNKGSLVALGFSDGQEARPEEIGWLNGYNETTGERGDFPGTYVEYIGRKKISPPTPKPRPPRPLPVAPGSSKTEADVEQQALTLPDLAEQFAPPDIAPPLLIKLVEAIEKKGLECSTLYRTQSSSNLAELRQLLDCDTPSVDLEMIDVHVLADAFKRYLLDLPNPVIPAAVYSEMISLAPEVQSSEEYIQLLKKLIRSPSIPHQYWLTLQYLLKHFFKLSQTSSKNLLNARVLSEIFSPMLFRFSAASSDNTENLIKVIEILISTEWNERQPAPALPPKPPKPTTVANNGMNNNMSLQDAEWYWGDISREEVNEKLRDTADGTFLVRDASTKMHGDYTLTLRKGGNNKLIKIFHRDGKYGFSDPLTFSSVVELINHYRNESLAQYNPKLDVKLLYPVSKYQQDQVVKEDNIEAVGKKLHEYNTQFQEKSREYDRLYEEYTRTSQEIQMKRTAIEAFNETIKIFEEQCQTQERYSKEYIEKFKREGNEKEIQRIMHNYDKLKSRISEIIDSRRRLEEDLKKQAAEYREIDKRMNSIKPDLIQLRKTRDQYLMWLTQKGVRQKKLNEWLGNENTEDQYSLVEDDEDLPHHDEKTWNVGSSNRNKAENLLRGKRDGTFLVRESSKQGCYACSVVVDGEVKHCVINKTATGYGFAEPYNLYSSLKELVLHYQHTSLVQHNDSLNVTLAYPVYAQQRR

By inhibition is commonly meant the drop in the measured response relative to a control, in per cent. Turning to `CCN(CC)c1nc(NCc2ccccc2)nc(Nc2ccc(S(=O)(=O)Nc3ccccn3)cc2)n1` [compound 20, 4-{[4-(Benzylamino)-6-(diethylamino)-1,3,5-triazin-2-yl]amino}-N-(pyridin-2-yl)benzene-1-sulfonamide], the inhibition at 100 µM on PI3Kα [1] turned out to be 46%. For the compound `CCN(CC)c1nc(Nc2ccc(S(=O)(=O)NC(=N)N)cc2)nc(N2CCOCC2)n1` [compound 34, 1-(4-{[4-(Diethylamino)-6-(morpholin-4-yl)-1,3,5-triazin-2-yl]amino}benzene-sulfonyl)guanidine], the inhibition at 100 µM at PI3Kα [2] came to 68 ± 3%.
